From ChEMBL document CHEMBL1201862, “PubChem BioAssay data set” (2004)
Where “and” joins values, the source holds several entries; their conditions need not be identical. Equal entries are not always repeated.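 Exposure lasted 48 hours, with cells grown in 96-well plates and compounds tested at five concentrations. At the GI50, growth is halved.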 Calls of active or inactive are those of the source. Rule as the data show it: active = GI50 up to about 1.1 µM and inactive = higher.

What was measured:
Assay in all cases: DTP human tumour cell line panel, 48 h
DU-145 = test system: DU-145
HL-60 = test system: HL-60
NCI/ADR-RES = test system: NCI/ADR-RES
SN12C = test system: SN12C
K562 = test system: K562
UACC-257 = test system: UACC-257
CCRF-CEM = test system: CCRF-CEM
HCC 2998 = test system: HCC 2998
HT-29 = test system: HT-29
HCT-15 = test system: HCT-15
TK-10 = test system: TK-10
RXF 393 = test system: RXF 393
MDA-MB-231 = test system: MDA-MB-231
SF-268 = test system: SF-268
MDA-MB-435 = test system: MDA-MB-435
Hs-578T = test system: Hs-578T
786-0 = test system: 786-0
A549 = test system: A549
SK-MEL-28 = test system: SK-MEL-28
NCI-H226 = test system: NCI-H226
MDA-N = test system: MDA-N
SF-295 = test system: SF-295
LOX IMVI = test system: LOX IMVI
NCI-H522 = test system: NCI-H522
KM12 = test system: KM12
PC-3 = test system: PC-3
MCF7 = test system: MCF7
NCI-H460 = test system: NCI-H460
EKVX = test system: EKVX
SW-620 = test system: SW-620
UO-31 = test system: UO-31
ACHN = test system: ACHN
SK-MEL-5 = test system: SK-MEL-5
SNB-75 = test system: SNB-75
U-251 = test system: U-251
OVCAR-4 = test system: OVCAR-4
SR = test system: SR
M14 = test system: M14
CAKI-1 = test system: CAKI-1
BT-549 = test system: BT-549
Malme-3M = test system: Malme-3M
HCT-116 = test system: HCT-116
SNB-19 = test system: SNB-19
SK-MEL-2 = test system: SK-MEL-2
IGROV-1 = test system: IGROV-1
RPMI-8226 = test system: RPMI-8226
MOLT-4 = test system: MOLT-4
OVCAR-5 = test system: OVCAR-5
COLO 205 = test system: COLO 205
OVCAR-8 = test system: OVCAR-8
SK-OV-3 = test system: SK-OV-3
NCI-H23 = test system: NCI-H23
OVCAR-3 = test system: OVCAR-3
HOP-62 = test system: HOP-62
UACC-62 = test system: UACC-62
HOP-92 = test system: HOP-92
T47D = test system: T47D
A498 = test system: A498

For `CCCNC(=O)CCC(C)C1CCC2C3C(C[C@H](OC(C)=O)[C@]12C)[C@@]1(C)CCC2(C[C@H]1C[C@H]3OC(C)=O)OOC1(CC[C@]3(C)C4C[C@H](OC(C)=O)[C@]5(C)C(C(C)CCC(=O)NCCC)CCC5C4[C@H](OC(C)=O)C[C@@H]3C1)OO2` (stereo partly drawn), the GI50 (DU-145) was 53.2 µM (inactive), the GI50 (HL-60) was > 100 µM (inactive) and the GI50 (NCI/ADR-RES) was > 100 µM (inactive). For the same compound, the GI50 (SN12C) was > 100 µM (inactive), the GI50 (K562) was > 100 µM (inactive) and the GI50 (UACC-257) was 31 µM (inactive). For the same compound, the GI50 (CCRF-CEM) was > 100 µM (inactive), the GI50 (HCC 2998) was > 100 µM (inactive) and the GI50 (HT-29) was > 100 µM (inactive). The GI50 (HCT-15) was greater than 100 µM, the GI50 (TK-10) was > 100 µM (inactive) and the GI50 (RXF 393) was > 100 µM (inactive). For the same compound, the GI50 (MDA-MB-231) was 11.3 µM (inactive), the GI50 (SF-268) was 32.1 µM (inactive) and the GI50 (MDA-MB-435) was > 100 µM (inactive). The GI50 (Hs-578T) was 19 µM (inactive), the GI50 (786-0) was > 100 µM (inactive) and the GI50 (A549) was > 100 µM (inactive). The GI50 (SK-MEL-28) was > 100 µM (inactive), the GI50 (NCI-H226) was 20.8 µM (inactive) and the GI50 (MDA-N) was > 100 µM (inactive). For the same compound, the GI50 (SF-295) was 60.4 µM (inactive), the GI50 (LOX IMVI) was > 100 µM (inactive) and the GI50 (NCI-H522) was > 100 µM (inactive). The GI50 (KM12) was > 100 µM (inactive), the GI50 (PC-3) was > 100 µM (inactive) and the GI50 (MCF7) was > 100 µM (inactive). For the same compound, the GI50 (NCI-H460) was > 100 µM (inactive), the GI50 (EKVX) was 57 µM (inactive) and the GI50 (SW-620) was > 100 µM (inactive). For the same compound, the GI50 (UO-31) was 101 nM (active), the GI50 (ACHN) was 4.37 µM (inactive) and the GI50 (SK-MEL-5) was 36.8 µM (inactive). The GI50 (SNB-75) was 57.5 µM (inactive), the GI50 (U-251) was > 100 µM (inactive) and the GI50 (OVCAR-4) was > 100 µM (inactive). For the same compound, the GI50 (SR) was > 100 µM (inactive), the GI50 (M14) was 25.6 µM (inactive) and the GI50 (CAKI-1) was 46.5 µM (inactive). The GI50 (BT-549) was > 100 µM (inactive), the GI50 (Malme-3M) was 34.6 µM (inactive) and the GI50 (HCT-116) was > 100 µM (inactive). For the same compound, the GI50 (SNB-19) was > 100 µM (inactive), the GI50 (SK-MEL-2) was > 100 µM (inactive) and the GI50 (IGROV-1) was 20.2 µM (inactive). For the same compound, the GI50 (RPMI-8226) was > 100 µM (inactive), the GI50 (MOLT-4) was > 100 µM (inactive) and the GI50 (OVCAR-5) was 46.5 µM (inactive). For the same compound, the GI50 (COLO 205) was > 100 µM (inactive), the GI50 (OVCAR-8) was 23.8 µM (inactive) and the GI50 (SK-OV-3) was 55.5 µM (inactive). The GI50 (NCI-H23) was > 100 µM (inactive), the GI50 (OVCAR-3) was > 100 µM (inactive) and the GI50 (HOP-62) was 20.8 µM (inactive).

In the case of `CC1OC(OC2C(OC(=O)[C@]34CCC(C)(C)C[C@H]3C3=CC[C@@H]5[C@@]6(C)CC[C@H](OC7OC(C(=O)O)C(O)C(O)C7O)C(C)(C)[C@@H]6CC[C@@]5(C)[C@]3(C)CC4)OCC(O)C2O)C(O)C(O)C1OC1OCC(O)C(O)C1O` (stereo partly drawn), the GI50 (HL-60) is reported as 21.8 µM (inactive), the GI50 (NCI/ADR-RES) is reported as 93.5 µM (inactive) and the GI50 (SN12C) is reported as 22.1 µM (inactive) and 19.4 µM (inactive). For the same compound, the GI50 (UACC-257) was 45 µM (inactive) and 29.8 µM (inactive), the GI50 (CCRF-CEM) was 77.4 µM (inactive) and the GI50 (HCC 2998) was 18.7 µM (inactive) and 19.2 µM (inactive). The GI50 (HT-29) was 15.4 µM (inactive) and 28.2 µM (inactive), the GI50 (HCT-15) was greater than 100 µM and the GI50 (RXF 393) was > 100 µM (inactive) and 70.1 µM (inactive). The GI50 (MDA-MB-231) was 11 µM (inactive) and 21.5 µM (inactive), the GI50 (SF-268) was > 100 µM (inactive) and 53.2 µM (inactive) and the GI50 (MDA-MB-435) was 18.3 µM (inactive) and 18.9 µM (inactive). For the same compound, the GI50 (786-0) was 49.3 µM (inactive) and 65.5 µM (inactive), the GI50 (A549) was 35.2 µM (inactive) and 30.6 µM (inactive) and the GI50 (SK-MEL-28) was 18.1 µM (inactive) and 24 µM (inactive). The GI50 (NCI-H226) was 43.6 µM (inactive) and 43.9 µM (inactive), the GI50 (MDA-N) was 17.9 µM (inactive) and 18.2 µM (inactive) and the GI50 (LOX IMVI) was 66.8 µM (inactive). For the same compound, the GI50 (UACC-62) was 39.4 µM (inactive) and 28 µM (inactive), the GI50 (NCI-H522) was 45.1 µM (inactive) and 45.5 µM (inactive) and the GI50 (MCF7) was 50.1 µM (inactive) and 41.5 µM (inactive). For the same compound, the GI50 (NCI-H460) was > 100 µM (inactive), the GI50 (EKVX) was 22.3 µM (inactive) and 30.1 µM (inactive) and the GI50 (UO-31) was 16.8 µM (inactive) and 22.1 µM (inactive). The GI50 (U-251) was 39.3 µM (inactive) and 75.2 µM (inactive), the GI50 (OVCAR-4) was 54 µM (inactive) and 53.8 µM (inactive) and the GI50 (HOP-92) was 30.6 µM (inactive) and 20.5 µM (inactive). The GI50 (T47D) was 34.8 µM (inactive) and 56.9 µM (inactive), the GI50 (M14) was 17.5 µM (inactive) and 19.2 µM (inactive) and the GI50 (CAKI-1) was 30 µM (inactive) and 40.4 µM (inactive). The GI50 (Malme-3M) was 34.7 µM (inactive) and 28.3 µM (inactive), the GI50 (HCT-116) was 39.9 µM (inactive) and 45.9 µM (inactive) and the GI50 (SK-MEL-2) was 19.4 µM (inactive) and 33.1 µM (inactive). For the same compound, the GI50 (IGROV-1) was > 100 µM (inactive), the GI50 (OVCAR-5) was 48.2 µM (inactive) and 31 µM (inactive) and the GI50 (COLO 205) was 16.7 µM (inactive) and 17.3 µM (inactive). For the same compound, the GI50 (OVCAR-8) was > 100 µM (inactive), the GI50 (SK-OV-3) was > 100 µM (inactive) and 82.8 µM (inactive) and the GI50 (A498) was 17.8 µM (inactive) and 18.6 µM (inactive). For the same compound, the GI50 (NCI-H23) was 17.7 µM (inactive) and 19.6 µM (inactive) and the GI50 (OVCAR-3) was > 100 µM (inactive).

With `C=CCN1C(=O)CS/C1=N/NC(=O)C(O)(c1ccccc1)c1ccccc1` the GI50 (HL-60) was > 10 µM (inactive), the GI50 (NCI/ADR-RES) was > 10 µM (inactive) and the GI50 (K562) was > 10 µM (inactive). The GI50 (CCRF-CEM) was > 10 µM (inactive), the GI50 (RXF 393) was > 10 µM (inactive) and the GI50 (SF-268) was > 10 µM (inactive). The GI50 (MDA-MB-435) was > 10 µM (inactive), the GI50 (786-0) was > 10 µM (inactive) and the GI50 (A549) was > 10 µM (inactive). For the same compound, the GI50 (SK-MEL-28) was > 10 µM (inactive), the GI50 (UACC-62) was > 10 µM (inactive) and the GI50 (MCF7) was > 10 µM (inactive). For the same compound, the GI50 (NCI-H460) was > 10 µM (inactive), the GI50 (SW-620) was > 10 µM (inactive) and the GI50 (ACHN) was > 10 µM (inactive). The GI50 (SK-MEL-5) was > 10 µM (inactive), the GI50 (SNB-75) was > 10 µM (inactive) and the GI50 (U-251) was > 10 µM (inactive). The GI50 (OVCAR-4) was > 10 µM (inactive), the GI50 (HOP-92) was > 10 µM (inactive) and the GI50 (SR) was > 10 µM (inactive). For the same compound, the GI50 (T47D) was > 10 µM (inactive), the GI50 (M14) was > 10 µM (inactive) and the GI50 (CAKI-1) was > 10 µM (inactive). For the same compound, the GI50 (Malme-3M) was > 10 µM (inactive), the GI50 (SK-MEL-2) was > 10 µM (inactive) and the GI50 (IGROV-1) was > 10 µM (inactive). For the same compound, the GI50 (RPMI-8226) was > 10 µM (inactive), the GI50 (MOLT-4) was > 10 µM (inactive) and the GI50 (COLO 205) was > 10 µM (inactive). For the same compound, the GI50 (SK-OV-3) was > 10 µM (inactive), the GI50 (NCI-H23) was > 10 µM (inactive) and the GI50 (HOP-62) was > 10 µM (inactive).
